Laboratory results: patent EP2110134A1, “Cocoa extract compounds and methods for making and using the same” (MARS, INCORPORATED, priority 1996, dated 1997)

Columns and labels:
Staphylococcus aureus = assay: Disk diffusion bioassay; format: cell-based; settings: read-out: S. aureus Inhibition
Procedure: (§1) A study was conducted to evaluate the antimicrobial activity of procyanidin oligomers against Helicobacter pylori and Staphylococcus aureus. Pentamer enriched material was prepared as described in Example 13, Method A and analyzed as described in Example 14, Method C, where 89% was pentamer, and 11% was higher oligomers (n is 6 to 12). Purified pentamer (96.3%) was prepared as described in Example 14, Method D.
(§2) Helicobacter pylori and Staphylococcus aureus were obtained from the American Type Culture Collection (ATCC). For H. pylori, the vial was rehydrated with 0.5 mL Trypticase Soy broth and the suspension transferred to a slant of fresh TSA containing 5% defibrinated sheep blood. The slant was incubated at 37°C for 3 to 5 days under microaerophilic conditions in anaerobic jars (5 to 10% carbon dioxide; CampyPakPlus, BBL). When good growth was established in the pool of broth at the bottom of the slant, the broth was used to inoculate additional slants of TSA with sheep blood. Because viability decreased with continued subculturing, the broth harvested from the slants was pooled and stored at -80°C. Cultures for assay were used directly from the frozen vials. […]
(§3) A cell suspension of each culture was prepared (H. pylori, 10^8 to 10^9 cfu/mL; S. aureus 10^6 to 10^7 cfu/mL) and 0.5 mL spread onto TSA plates with 5% sheep blood. […] Zones of inhibition were measured following outgrowth. […]

[1] = system: Human umbilical vein endothelial cells (HUVEC); assay: NO production by HUVEC, Griess reaction; format: cell-based
Procedure: Human umbilical vein endothelial cells (HUVEC) were obtained from Clonetics and cultures were carried out according to the manufacturer's specifications. HUVEC cells were seeded at 5,000 cells/cm^2 in 12-well plates (Falcon). After the third passage under the same conditions, they were allowed to reach confluence. The supernatant was renewed with fresh medium containing defined concentrations of bradykinin (25,50 and 100nM) or cocoa procyanidin fractions A-E (100µg/mL) as described in example 31. The culture was continued for 24 hr. and the cell free supernatants were collected and stored frozen prior to assessment of NO content as described below. In selected experiments, the NO synthase (NOS) antagonist, Nω-nitro-L-arginine methyl ester (L-NAME, 10µM) was added to assess the involvement of NOS in the observed NO production.
HUVEC NO production was estimated by measuring nitrite concentration in the culture supernatant by the Griess reaction. Griess reagent was 1% sulfanilamide, 0.1% N-(1-naphthyl)-ethylenediamine dihydrochloride. Briefly, 50µL aliquots were removed from the various supernatants in quadruplicate and incubated with 150µL of the Griess reagent. The absorbency at 540 nm was determined in a multiscan (Labsystems Multiskans MCC/340) apparatus. Sodium nitrite was used at defined concentrations to establish standard curves. […]

Helicobacter pylori = assay: Disk diffusion bioassay; format: cell-based; settings: control disk, 80ug, read-out: H. pylori Inhibition
Procedure: as §1, §2, §3

[2] = Rancimat oxidative stability test; settings: 100°C, 20 cc/min air
Procedure: The procedures described in Examples 1, 2 and 3 were used to prepare cocoa extracts which were manipulated further to produce two fractions from gel permeation chromatography. These two fractions are actually combined fractions A through C, and D and E (See Figure 1) whose antioxidant properties were compared against the synthetic antioxidants BHA and BHT.
Peanut Oil was pressed from unroasted peanuts after the skins were removed. 50µL of methanol solubilized antioxidant was added to each sample to aid in dispersion of the antioxidant. A control sample was prepared with 50µL of methanol containing no antioxidant.
The samples were evaluated in duplicate, for oxidative stability using the Rancimat stability test at 100°C and 20 cc/min of air. Experimental parameters were chosen to match those used with the Active Oxygen Method (AOM) or Swift Stability Test (Van Oosten et al., 1981). Results are reported in Table 8 as hours required to reach a peroxide level of 100 meq. Table 7: Concentrations of Antioxidants

**Q.** With CN[C@H](CC(C)C)C(=O)N[C@H]1C(=O)N[C@@H](CC(N)=O)C(=O)N[C@H]2C(=O)N[C@H]3C(=O)N[C@H](C(=O)N[C@H](C(=O)O)c4cc(O)cc(O)c4-c4cc3ccc4O)[C@H](O)c3ccc(c(Cl)c3)Oc3cc2cc(c3O[C@@H]2O[C@H](CO)[C@@H](O)[C@H](O)[C@H]2O[C@H]2C[C@](C)(N)[C@H](O)[C@H](C)O2)Oc2ccc(cc2Cl)[C@H]1O [Vancomycin standard, vancomycin] as the compound, how does the zone of inhibition at 30 µg/disc (Staphylococcus aureus) read?
**A.** 15 mm

**Q.** For “bradykinin (RPPGFSPFR; Bradykinin; UniProt P01042 381-389, looked up)”, which “NO production by HUVEC” value ([1]; 25, 50 and 100nM, 24 hr) is on record?
**A.** dose dependent release of NO

**Q.** What about the “NO release in the presence of L-NAME” value ([1]; L-NAME 10µM) of the same compound?
**A.** completely inhibited

**Q.** With Cc1ncc([N+](=O)[O-])n1CCO [Metronidazole standard, metronidazole] as the compound, how does the zone of inhibition at 80 µg/disc (Helicobacter pylori) read?
**A.** 11 mm

**Q.** For COc1ccc(O)c(C(C)(C)C)c1 [BHA, Butylated Hydroxyanisole], which “hours required to reach a peroxide level of 100 meq” value ([2]; 20 ppm nominal (actual levels in Table 7), control 10.5 ± 0.7) is on record?
**A.** 13.5 ± 2.1 h

**Q.** What about the “hours required to reach a peroxide level of 100 meq” value ([2]; 100 ppm nominal (actual levels in Table 7)) of the same compound?
**A.** 14.0 ± 1.4 h
